From ChEMBL document CHEMBL1201862, “PubChem BioAssay data set” (2004)
Active and inactive are the calls of the source.

Key:
[1] = blockers of FN fibrillogenesis by fibroblasts – AH1F cells, Alexa488-FN fluorescence, cherry-picks, dose response (AID 1035475); assay type: functional, cell-based
Beta-galactosidase = Beta-galactosidase (Escherichia coli, UniProt Q8VNN2); assay: Dose response counterscreen for EBI2 assay utilizing the enzyme, b-galactosidase.; assay type: functional
Paired box protein Pax-8 = Paired box protein Pax-8 (Homo sapiens, UniProt Q06710); assay: PAX8 transcriptional activity inhibition in RMG-I – RMG-I cells, luciferase, cherry-pick, dose response (AID 687027); assay type: functional, cell-based;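 note: luciferase reporter driven by Pax8 target thyroperoxidase promoter measured by SteadyGlo luminescence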
Sequence of Paired box protein Pax-8 (Q06710 whole entry): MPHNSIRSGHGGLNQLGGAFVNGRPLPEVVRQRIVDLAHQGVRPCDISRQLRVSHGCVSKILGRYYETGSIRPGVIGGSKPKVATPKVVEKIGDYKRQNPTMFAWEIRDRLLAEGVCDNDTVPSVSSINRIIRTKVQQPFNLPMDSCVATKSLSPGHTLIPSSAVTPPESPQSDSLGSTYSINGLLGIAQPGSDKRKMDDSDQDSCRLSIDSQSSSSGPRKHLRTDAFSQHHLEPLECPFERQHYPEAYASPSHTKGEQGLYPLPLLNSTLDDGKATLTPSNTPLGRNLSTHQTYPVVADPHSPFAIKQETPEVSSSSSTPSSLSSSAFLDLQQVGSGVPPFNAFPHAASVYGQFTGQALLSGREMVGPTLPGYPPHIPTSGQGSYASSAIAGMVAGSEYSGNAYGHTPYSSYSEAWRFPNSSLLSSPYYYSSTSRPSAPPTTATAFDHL

[2] = inhibitors acting on PAX2 in cells – cell-based, plate reader, dry powder samples, selectivity assay for PAX8 inhibitor project, dose response (AID 743048); assay type: functional;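 note: HEK293 cells carrying a WT1 promoter luciferase reporter driven by expressed Pax2; potency is for inhibition of Pax2 driven reporter signal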
[3] = COV362 cell viability loss – plate reader, dry powder, SA12, cytotoxicity control for PAX8 inhibitor project, dose response (AID 743144); assay type: functional, cell-based
[4] = OVCAR-3 cell viability loss – plate reader, dry powder samples, PAX8 inhibitor project, dose response (AID 743044); assay type: functional, cell-based
[5] = IGROV1 cell killing – plate reader, dry powder samples, PAX8 inhibitor project, dose response (AID 743043); assay type: functional, cell-based; settings: IGROV-1
[6] = OVCAR4 cell viability loss – plate reader, dry powder, SA11, cytotoxicity control for PAX8 inhibitor project, dose response (AID 743150); assay type: functional, cell-based; settings: OVCAR-4
[7] = COV434 cell viability loss – plate reader, dry powder, SA7, cytotoxicity control for PAX8 inhibitor project, dose response (AID 743145); assay type: functional, cell-based
[8] = OV-90 cell viability loss – plate reader, dry powder, SA8, PAX8 inhibitor project, dose response (AID 743149); assay type: functional, cell-based
[9] = PAX8-dependent cell viability loss – plate reader, dry powder, dose response (AID 743049); assay type: functional, cell-based
[10] = viability loss in HepG2 hepatoma cells – cell-based, cherry-picks, set 5, cytotoxicity control, dose response (AID 1053118); assay type: functional
[11] = viability loss in HEK293 kidney cells – cell-based, cherry-picks, set 5, cytotoxicity control, dose response (AID 1053117); assay type: functional
[12] = Mycobacterium tuberculosis BioA enzyme inhibitor Measured in Biochemical System Using Plate Reader - 2163-02_Inhibitor_Dose_DryPowder_Activity.
NS3 = NS3 (Hepatitis C virus, UniProt A3EZJ3); assay: NS3h DNA-binding inhibition IC50 – biochemical, fluorescence polarization, ChemBridge library, dose response (AID 743264)
Sequence of NS3 (A3EZJ3 whole entry): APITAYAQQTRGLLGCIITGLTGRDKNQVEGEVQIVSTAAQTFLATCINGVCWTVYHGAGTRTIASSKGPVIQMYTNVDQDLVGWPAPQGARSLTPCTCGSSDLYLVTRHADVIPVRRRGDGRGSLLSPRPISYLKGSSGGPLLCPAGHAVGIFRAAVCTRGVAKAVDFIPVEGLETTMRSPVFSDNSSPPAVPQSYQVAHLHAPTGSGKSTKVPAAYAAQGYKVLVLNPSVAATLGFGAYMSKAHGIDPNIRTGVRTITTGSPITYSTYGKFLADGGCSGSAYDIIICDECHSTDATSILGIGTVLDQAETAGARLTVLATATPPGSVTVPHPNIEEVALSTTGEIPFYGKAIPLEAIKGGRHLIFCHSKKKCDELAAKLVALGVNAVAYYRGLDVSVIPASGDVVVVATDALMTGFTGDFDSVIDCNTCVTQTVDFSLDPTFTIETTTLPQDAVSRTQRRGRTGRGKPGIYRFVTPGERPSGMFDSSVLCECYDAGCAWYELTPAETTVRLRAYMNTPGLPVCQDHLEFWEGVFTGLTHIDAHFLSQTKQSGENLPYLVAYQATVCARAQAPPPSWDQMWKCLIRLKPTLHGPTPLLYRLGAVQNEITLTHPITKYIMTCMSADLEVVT

[13] = MITF Orthogonal Assay: MALME3 CTG Assay Measured in Cell-Based System Using Plate Reader - 2084-04_Inhibitor_Dose_DryPowder_Activity_Set6.; assay type: functional; settings: MALME-3
[14] = growth inhibition of SK-MEL-5 melanoma cells – cell-based, CellTiter-Glo luminescence, dry powder, set 8, orthogonal assay for MITF inhibitor project, dose response (AID 651586); assay type: functional
[15] = growth inhibition of MALME3 cells – cell-based, CellTiter-Glo luminescence, dry powder, set 5, orthogonal assay for MITF inhibitor project, dose response (AID 651584); assay type: functional; settings: MALME-3
[16] = MITF Orthogonal Assay: SK-MEL-5 CTG Assay Measured in Cell-Based System Using Plate Reader - 2084-02_Inhibitor_Dose_DryPowder_Activity_Set7.; assay type: functional
[17] = MITF: Counter assay: A375 proliferation Measured in Cell-Based System Using Plate Reader - 2084-03_Inhibitor_Dose_DryPowder_Activity_Set8.; assay type: functional; settings: A-375
[18] = cytotoxicity in MITF-independent A375 cells – cell-based, CellTiter-Glo luminescence, dry powder, set 9, counter-screen for MITF modulator project, dose response (AID 651591); assay type: functional; settings: A-375
[19] = inhibitors of TRPM1-promoter reporter in SK-MEL-5 – cell-based, luciferase, dry powder, set 8, MITF inhibitor project, dose response (AID 624430); assay type: functional
[20] = melanocyte viability loss, MITF-dependent cells, cell-based, plate reader, dry powder, cytotoxicity control, dose response (AID 651920); assay type: functional
[21] = Late stage assay provider results from the probe development effort to identify inhibitors of the Plasmodium falciparum M18 Aspartyl Aminopeptidase (M18AAP): radiolabel-based cell-based dose response assay to identify compounds that inhibit P. falciparum growth in RBCs, Set 2..; assay type: functional
[22] = Luminescence Cell-Based Dose Confirmation HTS to Identify Activators of 5'UTR Stem-Loop Driven Alpha-Synuclein mRNA Translation in H4 Neuroglioblastoma Cells. [Related pubchem assays: 1829 (Project Summary), 1814 (Primary HTS)]; assay type: functional
[23] = Luminescence Cell-Based Dose Response HTS to Identify Activators of Luciferase Translation or Activity in H4 […] Cells. [Related pubchem assays: 1829 (Project Summary), 1814 (Primary HTS)]; assay type: functional
[24] = system: Streptococcus sp. 'group A'; assay: Streptococcus pyogenes SK(-)GAS viability under kanamycin – luminescence, BacTiterGlo, confirmation, counter-screen for streptokinase expression inhibitor project, dose response (AID 1900); assay type: functional, organism-based
H4 = assay: Luminescence Cell-Based Dose Response HTS to Identify Activators of 5'UTR Stem-Loop Driven Prion Protein mRNA Translation in H4 Neuroglioblastoma Cells. [Related pubchem assays: 1829 (Project Summary), 1814 (Primary HTS)]; assay type: functional; settings: Homo sapiens
Streptokinase A = biological target: T1, Streptokinase A (Streptococcus pyogenes serotype M1, UniProt P10520); assay: viability-normalized secreted streptokinase activity reduction – plasminogen activation absorbance, OD405, dose response (AID 1914); assay type: functional, Streptococcus pyogenes M1 GAS;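 note: secreted streptokinase activity via plasminogen activation per viability signal from cell pellet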
T1 sequence (P10520 whole entry): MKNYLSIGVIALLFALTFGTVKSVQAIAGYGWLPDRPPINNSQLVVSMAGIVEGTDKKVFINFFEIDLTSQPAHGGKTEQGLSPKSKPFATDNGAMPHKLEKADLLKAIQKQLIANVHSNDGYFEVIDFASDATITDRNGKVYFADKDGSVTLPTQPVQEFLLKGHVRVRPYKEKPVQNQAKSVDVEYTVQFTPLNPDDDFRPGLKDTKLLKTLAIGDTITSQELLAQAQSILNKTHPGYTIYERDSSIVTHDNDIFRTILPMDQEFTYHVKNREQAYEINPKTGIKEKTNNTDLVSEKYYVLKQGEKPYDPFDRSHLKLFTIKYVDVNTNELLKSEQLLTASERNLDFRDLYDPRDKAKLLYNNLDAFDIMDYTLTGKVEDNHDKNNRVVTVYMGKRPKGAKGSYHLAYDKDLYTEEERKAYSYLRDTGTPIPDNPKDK

[25] = biological target: G-protein coupled receptor 55 (Homo sapiens, UniProt Q9Y2T6); assay: inhibition of LPI-stimulated GPR55 beta-arrestin translocation – imaging, U2OS, beta-arrestin-GFP, LPI agonist, primary screen (AID 2013); assay type: functional;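 note: antagonist potency measured as reduced agonist-driven arrestin aggregation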
Sequence of G-protein coupled receptor 55 (Q9Y2T6 whole entry): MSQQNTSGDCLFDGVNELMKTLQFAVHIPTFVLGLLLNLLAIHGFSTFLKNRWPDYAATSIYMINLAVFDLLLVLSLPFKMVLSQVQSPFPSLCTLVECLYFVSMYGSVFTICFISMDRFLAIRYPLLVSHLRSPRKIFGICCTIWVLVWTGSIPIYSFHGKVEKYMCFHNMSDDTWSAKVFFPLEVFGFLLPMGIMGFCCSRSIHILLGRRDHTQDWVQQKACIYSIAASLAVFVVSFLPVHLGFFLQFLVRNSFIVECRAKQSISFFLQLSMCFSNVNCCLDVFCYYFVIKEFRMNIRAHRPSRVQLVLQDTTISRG

[26] = microbe, parasite or virus in culture; assay type: functional; settings: Mycobacterium tuberculosis
Streptococcus = assay: GAS UMAA2166 growth inhibition – luminescence, BacTiterGlo, counter-screen for streptokinase expression inhibitor project, dose response (AID 1915); assay type: functional, organism-based;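 note: potency for reduction of bacterial viability or growth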
[27] = THP-1 cell cytotoxicity, dose response, cytotoxicity control for non-replicating M. tuberculosis project (AID 489025); assay type: functional
[28] = HepG2 cell cytotoxicity, dose response, cytotoxicity control for non-replicating M. tuberculosis project (AID 489018); assay type: functional; settings: Mycobacterium tuberculosis
[29] = Vero E6 cell cytotoxicity, dose response, cytotoxicity control for non-replicating M. tuberculosis project, secondary assay (AID 492998); assay type: functional, VeroE6; settings: Vero C1008
cells = assay type: functional
[30] = NIH3T3 cell viability loss, ATP content – CellTiter-Glo luminescence, cherry-pick, set 2, cytotoxicity control for HSP40 inhibitor project, dose response (AID 624265); assay type: functional
[31] = rescue of ΔF508 CFTR function, airway epithelium – human bronchial epithelial cells, plate reader, cherry-pick, two tests, dose response (AID 743267); assay type: functional, cell-based

Sequence of Beta-galactosidase (Q8VNN2 whole entry): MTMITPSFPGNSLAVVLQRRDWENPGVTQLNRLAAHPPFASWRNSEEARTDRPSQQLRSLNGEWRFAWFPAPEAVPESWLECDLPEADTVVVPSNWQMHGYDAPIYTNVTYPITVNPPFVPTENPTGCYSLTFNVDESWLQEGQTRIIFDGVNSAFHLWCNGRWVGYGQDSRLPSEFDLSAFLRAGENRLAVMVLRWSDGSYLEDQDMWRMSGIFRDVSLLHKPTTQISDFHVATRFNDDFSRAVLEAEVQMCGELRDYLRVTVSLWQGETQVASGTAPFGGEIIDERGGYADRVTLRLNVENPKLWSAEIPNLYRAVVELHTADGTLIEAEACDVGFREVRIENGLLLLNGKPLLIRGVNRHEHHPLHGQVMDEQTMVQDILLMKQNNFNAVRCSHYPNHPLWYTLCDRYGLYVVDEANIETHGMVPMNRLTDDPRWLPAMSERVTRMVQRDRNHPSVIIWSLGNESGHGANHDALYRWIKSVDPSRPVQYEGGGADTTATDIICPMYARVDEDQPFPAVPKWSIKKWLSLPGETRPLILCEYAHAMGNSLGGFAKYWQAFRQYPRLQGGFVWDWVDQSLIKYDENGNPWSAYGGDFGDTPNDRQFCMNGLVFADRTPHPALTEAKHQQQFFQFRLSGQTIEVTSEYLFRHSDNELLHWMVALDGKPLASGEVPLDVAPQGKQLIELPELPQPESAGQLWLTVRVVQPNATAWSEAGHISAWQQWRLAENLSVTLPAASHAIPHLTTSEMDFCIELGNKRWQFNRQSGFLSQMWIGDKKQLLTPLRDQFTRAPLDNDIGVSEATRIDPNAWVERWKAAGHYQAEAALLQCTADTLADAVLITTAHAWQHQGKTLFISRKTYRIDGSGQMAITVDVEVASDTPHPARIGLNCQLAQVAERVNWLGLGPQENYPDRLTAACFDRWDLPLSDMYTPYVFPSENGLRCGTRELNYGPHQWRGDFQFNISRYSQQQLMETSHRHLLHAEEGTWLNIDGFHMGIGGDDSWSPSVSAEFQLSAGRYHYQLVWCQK

CC(=O)Nc1cccc(-c2ccnc3c2CC(C)(C(=O)Nc2cccc(C(F)(F)F)c2)O3)c1 (stereo not drawn)
AC50 [1]: 22.7 µM (active)

O=C(c1cc(-c2cccs2)on1)N1CCN(C(c2ccccc2)c2ccccc2)CC1
IC50 (Beta-galactosidase): > 80 µM (inactive)
AC50 (Paired box protein Pax-8): 0.733 µM (active)
AC50 [2]: 49.9 µM (active)
AC50 [3]: 48.4 µM (active)
AC50 [4]: 60.2 µM (active)
AC50 [5]: 44.1 µM (active)
AC50 [6]: 44.4 µM (active)
AC50 [7]: 80.1 µM (active)
AC50 [8]: > 100 µM (inactive)
AC50 [9]: 9.18 µM (active)

COc1cccc(-c2ccc3c(c2)[C@H]2[C@H](CCN2S(=O)(=O)c2cccc(OC)c2)[C@@H](CO)N3)c1
AC50 [10]: > 52 µM (inactive)
AC50 [11]: 29.7 µM (active)

O=C(Nc1cccnc1)N1CCN(c2ccccc2)CC1
AC50 [12]: 13 µM (active)

O=C1NC(=O)N(c2ccccc2F)C(=O)/C1=C/c1ccc(-c2cc(C(=O)O)ccc2Cl)o1
IC50 (NS3): 35 µM (inactive)

Cc1ccc(NC2=CC(=O)c3ccccc3C2=O)cc1
AC50 [13]: 13.5 µM (active)
AC50 [14]: 36.1 µM (active)
AC50 [15]: 13.5 µM (active)
AC50 [16]: 1.24 µM (active)
AC50 [17]: > 70 µM (inactive)
AC50 [18]: > 70 µM (inactive)
AC50 [19]: 6.58 µM (active)
AC50 [20]: > 70 µM (inactive)

COc1ccc(CCNc2ccnc3cc(Cl)ccc23)cc1OC
IC50 [21]: 0.66 µM (active)

NC(=O)N=Nc1c2nc3ccccc3[nH]c-2c2ccccc12
EC50 [22]: 13 µM (active)
EC50 [23]: > 120 µM (not active)
EC50 [24]: 7.71 µM (active)
EC50 (H4): > 120 µM (not active)
EC50 (Streptokinase A): 46.2 µM (active)
IC50 [25]: 2.88 µM (active)
CC50 [26]: 7.97 µM (active)
EC50 (Streptococcus): > 150 µM (not active)
CC50 [27]: 23.5 µM (active)
CC50 [28]: > 20 µM (active)
CC50 [29]: 11.9 µM (active)
IC50 (cells): 11.1 µM (active)
AbsAC35_uM [30]: 58.66 µM
AC50 [31]: 8.41 µM (active)
